The source of these data is patent US20090275610A1, “TRICYCLIC OPIOID MODULATORS” (priority 2005, published 2009).

Read-outs that look alike come from different tables or passages of the source.

The target of assay [1] is T1, hMOR (CHO-hMOR cell membranes) (Homo sapiens, UniProt P35372).
T1 construct: host or cells: CHO cells expressing hMOR (purchased membranes)
Nature of the assay: [35S]GTPγS binding assay in CHO-hMOR cell membranes. It is filed as biochemical. The procedure: Functional Assay: [^35S]GTPγS Binding Assays in CHO-hMOR Cell Membranes
Methods: CHO-hMOR cell membranes were purchased from Receptor Biology, Inc. (Baltimore, Md.). About 10 mg/mL of membrane protein was suspended in 10 mM TRIS-HCl pH 7.2, 2 mM EDTA, 10% sucrose, and the suspension kept on ice. A 1 mL volume of membranes was added to 15 mL cold binding assay buffer containing 50 mM HEPES, pH 7.6, 5 mM MgCl2, 100 mM NaCl, 1 mM DTT and 1 mM EDTA. The membrane suspension was homogenized with a Polytron and centrifuged at 3,000 rpm for 10 min. The supernatant was then centrifuged at 18,000 rpm for 20 min. The pellet was resuspended in 10 mL assay buffer with a Polytron. The membranes were preincubated with wheat germ agglutinin coated SPA beads (Amersham) at 25° C. for 45 min in the assay buffer. The SPA bead (5 mg/mL) coupled membranes (10 μg/mL) were then incubated with 0.5 nM [^35S]GTPγS in the assay buffer. […] A range of concentrations of receptor agonist was used to stimulate [^35S]GTPγS binding. Both basal and non-specific binding was tested in the absence of agonist; non-specific binding determination included 10 μM unlabeled GTPγS.
Compounds were tested for function as antagonists by evaluating their potential to inhibit agonist-stimulated GTPγS binding. Radioactivity was quantified on a Packard TopCount. The following parameters were calculated:
(§1) EC50 values were calculated using GraphPad Prism.
Background: Binding of GTPγS marks nucleotide exchange on a G protein.

The target in another assay is T2, mu opioid receptor (Rattus norvegicus, UniProt P33535).
T2 construct: the forebrains were homogenized in Tris buffer in a Teflon®-glass homogenizer; from tissue; host or cells: forebrain of male Wistar rats (particulate membrane preparation)
The experiment in a line: Rat brain mu opioid receptor binding assay. As to conditions: rat forebrain membranes, [3H]DAMGO, 25° C., 2.5 h. The method, then: Rat Brain Mu Opioid Receptor Binding Assay
(§2) Procedure: Male, Wistar rats (150-250 g, VAF, Charles River, Kingston, N.Y.) were killed by CO2, and their brains removed and placed immediately in ice cold Tris HCl buffer (50 mM, pH 7.4). The forebrains were separated from the remainder of the brain by a coronal transection, beginning dorsally at the colliculi and passing ventrally through the midbrain-pontine junction. After dissection, the forebrains were homogenized in Tris buffer in a Teflon®-glass homogenizer. The homogenate was diluted to a concentration of 1 g of forebrain tissue per 80 mL Tris and centrifuged at 39,000×g for 10 min. The pellet was resuspended in the same volume of Tris buffer containing 5 mM MgCl2 with several brief pulses from a Polytron homogenizer. This particulate preparation was used for the delta opioid binding assays.
Analysis: The data from the scintillation counter were used to calculate either the % inhibition compared to control binding (when only a single concentration of test compound was evaluated) or a Ki value (when a range of concentrations tested). Percent inhibition was calculated as: [(total dpm−test compound dpm)/(total dpm−nonspecific dpm)]*100. Kd and Ki values were calculated using GraphPad PRISM data analysis program.

For another assay, the target named is T3, delta opioid receptor (Rattus norvegicus, UniProt P33533).
T3 construct: the forebrains were homogenized in Tris buffer in a Teflon®-glass homogenizer; from tissue; host or cells: forebrain of male Wistar rats (particulate membrane preparation)
Nature of the assay: Rat brain delta opioid receptor binding assay. Conditions: rat forebrain membranes, [3H]DPDPE or [3H]naltrindole, 25° C., 2.5 h. The method, then:
Rat Brain Delta Opioid Receptor Binding Assay
as §2
Analysis: The data from the scintillation counter were used to calculate either the % inhibition compared to control binding (when only a single concentration of test compound was evaluated) or a Ki value (when a range of concentrations was tested). Percent inhibition was calculated as: [(total dpm−test compound dpm)/(total dpm−nonspecific dpm)]*100. Kd and Ki values were calculated using GraphPad PRISM data analysis program.

For assay [2], the target named is T4, delta opioid receptor (NG108-15 cell membranes) (Mus musculus, UniProt P32300).
T4 construct: NG108-15 cell membranes were purchased from Applied Cell Sciences (Rockville, Md.); host or cells: NG108-15 cell membranes (purchased)
The experiment in a line: [35S]GTPγS binding assay in NG108-15 cell membranes (delta opioid). It is filed as biochemical. The method, then: Functional Assay: [^35S]GTPγS Binding Assay in NG108-15 Cell Membranes (Delta Opioid)
Methods: NG108-15 cell membranes were purchased from Applied Cell Sciences (Rockville, Md.). A sample (8 mg/mL) of membrane protein suspended in 10 mM TRIS-HCl pH 7.2, 2 mM EDTA, 10% sucrose. Membranes were maintained at 4-8° C. A 1 mL volume of membranes was added into 10 mL cold binding assay buffer. The assay buffer contained 50 mM Tris, pH 7.6, 5 mM MgCl2, 100 mM NaCl, 1 mM DTT and 1 mM EGTA. The membrane suspension was homogenized twice with a Polytron, and centrifuged at 3000 rpm for 10 min. The supernatant was then centrifuged at 18,000 rpm for 20 min. Ten mL assay buffer was added into the pellet containing tube. The pellet and buffer were mixed with a Polytron.
Incubation procedure: The pellet membranes (75 μg/mL) were preincubated with SPA (10 mg/mL) at 25° C. for 45 min in the assay buffer. The SPA (5 mg/mL) coupled with membranes (37.5 μg/mL) was then incubated with 0.1 nM [^35S]GTPγS in the same Tris buffer containing 100 μM GDP in total volume of 200 μL. Increasing concentrations of receptor agonists were used to stimulate [^35S]-GTPγS binding. The basal binding was tested in the absence of agonists and non-specific binding was tested in the presence of 10 μM unlabeled GTPγS. The data were analyzed on a Packard Top Count.
% of Basal=(stimulated−non specific)*100/(basal−non specific).
as §1

[3] abbreviates: CHO-hMOR cell membranes, read-out: mu GTPγS binding EC50.
[4] abbreviates: read-out: rMOR (Ki, nM): Rat mu opioid receptor binding constant.
Where [5] appears, read: read-out: rDOR (Ki, nM): Rat delta opioid receptor binding constant.
Where [6] appears, read: read-out: delta GTPγS binding EC50.
Where [7] appears, read: rMOR (Ki, nM): Rat mu opioid receptor binding constant.
Setting [8] is: rDOR (Ki, nM): Rat delta opioid receptor binding constant.

T4 sequence (P32300 whole entry): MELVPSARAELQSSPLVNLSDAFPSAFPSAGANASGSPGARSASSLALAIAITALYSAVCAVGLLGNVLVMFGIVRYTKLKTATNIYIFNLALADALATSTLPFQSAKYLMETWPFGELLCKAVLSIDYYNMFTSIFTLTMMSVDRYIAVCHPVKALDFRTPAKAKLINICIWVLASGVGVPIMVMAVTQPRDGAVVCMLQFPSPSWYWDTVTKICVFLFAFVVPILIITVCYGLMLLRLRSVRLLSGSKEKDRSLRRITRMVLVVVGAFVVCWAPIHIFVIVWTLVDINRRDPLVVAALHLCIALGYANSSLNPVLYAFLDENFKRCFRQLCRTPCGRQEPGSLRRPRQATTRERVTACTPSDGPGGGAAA
T1 sequence (P35372 whole entry): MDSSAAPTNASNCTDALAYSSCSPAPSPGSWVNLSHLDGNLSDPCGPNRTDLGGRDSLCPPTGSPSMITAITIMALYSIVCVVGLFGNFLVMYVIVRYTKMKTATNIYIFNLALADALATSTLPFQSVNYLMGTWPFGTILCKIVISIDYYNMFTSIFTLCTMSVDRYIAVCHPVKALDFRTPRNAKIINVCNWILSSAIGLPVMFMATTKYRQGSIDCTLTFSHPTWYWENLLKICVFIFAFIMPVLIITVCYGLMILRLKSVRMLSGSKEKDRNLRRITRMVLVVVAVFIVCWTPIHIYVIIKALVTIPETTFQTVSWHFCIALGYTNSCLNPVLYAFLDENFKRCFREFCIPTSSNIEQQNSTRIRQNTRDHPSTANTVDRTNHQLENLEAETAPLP
T2 sequence (P33535 whole entry): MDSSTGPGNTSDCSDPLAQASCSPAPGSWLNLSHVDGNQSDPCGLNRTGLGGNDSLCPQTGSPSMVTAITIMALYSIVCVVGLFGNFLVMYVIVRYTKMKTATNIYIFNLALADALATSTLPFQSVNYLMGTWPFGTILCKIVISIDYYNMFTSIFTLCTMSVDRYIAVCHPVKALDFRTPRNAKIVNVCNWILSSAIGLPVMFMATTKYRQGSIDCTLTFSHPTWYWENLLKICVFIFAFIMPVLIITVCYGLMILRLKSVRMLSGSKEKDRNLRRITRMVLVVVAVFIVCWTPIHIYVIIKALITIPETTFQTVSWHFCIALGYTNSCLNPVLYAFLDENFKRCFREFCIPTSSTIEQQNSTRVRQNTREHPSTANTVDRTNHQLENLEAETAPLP
T3 sequence (P33533 whole entry): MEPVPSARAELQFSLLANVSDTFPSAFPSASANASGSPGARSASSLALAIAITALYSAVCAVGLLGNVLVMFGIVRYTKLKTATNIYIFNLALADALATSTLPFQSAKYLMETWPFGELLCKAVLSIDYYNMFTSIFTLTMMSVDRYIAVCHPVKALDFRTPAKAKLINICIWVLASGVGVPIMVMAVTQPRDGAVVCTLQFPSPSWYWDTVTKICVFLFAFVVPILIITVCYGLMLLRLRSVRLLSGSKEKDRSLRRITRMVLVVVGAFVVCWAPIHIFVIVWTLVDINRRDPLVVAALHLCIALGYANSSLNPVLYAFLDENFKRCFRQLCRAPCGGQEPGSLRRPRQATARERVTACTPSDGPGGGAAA

In the case of `Oc1cccc2c1Oc1ccccc1C2=C1CC2CCC(C1)N2Cc1ccncc1` [Cpd 22], the EC50 in assay [1] (setting [3]) is greater than 10000 nM; in assay [2] (setting [6]), 2720 nM. Also, the figures for the Ki on mu opioid receptor (setting [4]) and at delta opioid receptor (setting [5]) were 358 nM and 0.97 nM, respectively.

Take `Oc1cccc2c1Oc1ccccc1C2=C1CC2CCC(C1)N2Cc1ccoc1` [Cpd 25, 9-(8-Furan-3-ylmethyl-8-aza-bicyclo[3.2.1]oct-3-ylidene)-9H-xanthen-4-ol]: the figures for the EC50 in assay [1] and in assay [2] (delta GTPγS binding EC50 (nM)) were 2810 nM and 1.08 nM, respectively. The Ki at mu opioid receptor (setting [7]) is 0.56 nM; on delta opioid receptor (setting [8]), 0.26 nM.

Regarding `Oc1cccc2c1Oc1ccccc1C2=C1CC2CCC(C1)N2` (single isomer, unassigned) [Cpd 8, 9-(8-Azabicyclo[3.2.1]oct-3-ylidene)-9H-xanthen-4-ol], the EC50 in assay [1] came to 902 nM; in assay [2] (delta GTPγS binding EC50 (nM)), 9.98 nM. The Ki on mu opioid receptor (setting [7]) turned out to be 3.5 nM; at delta opioid receptor (setting [8]), 0.56 nM.

For `Oc1cccc2c1Oc1ccccc1C2=C1CC2CCC(C1)N2CC1CC1` [Cpd 26], the EC50 in assay [1] (setting [3]) is greater than 10000 nM; in assay [2] (setting [6]) it was 194 nM. Moreover, the Ki at mu opioid receptor (setting [4]) stood at 65.9 nM; at delta opioid receptor (setting [5]), 5.43 nM.

Turning to `Oc1cccc2c1Oc1ccccc1C2=C1CC2CCC(C1)N2Cc1ccccn1` [Cpd 21, 9-(8-pyridin-2-ylmethyl-8-azabicyclo[3.2.1]oct-3-ylidene)-9H-xanthen-4-ol], the EC50 in assay [1] was greater than 10000 nM; in assay [2] (delta GTPγS binding EC50 (nM)), 21.8 nM. For the same compound, the Ki on mu opioid receptor (setting [7]) was 0.1 nM; at delta opioid receptor (setting [8]), 0.007 nM.

Take `Oc1cccc2c1Oc1ccccc1C2=C1CC2CCC(C1)N2Cc1cccs1` [Cpd 24]: the EC50 in assay [1] (setting [3]) is greater than 10000 nM; in assay [2] (setting [6]) it was 6.05 nM. For the same compound, the Ki was found to be 1.58 nM on mu opioid receptor (setting [4]) and 0.046 nM on delta opioid receptor (setting [5]).

On to `Oc1cccc2c1Oc1ccccc1C2=C1CC2CCCC(C1)N2` [Cpd 20, 9-(9-Azabicyclo[3.3.1]non-3-ylidene)-9H-xanthen-4-ol], for which the EC50 in assay [1] worked out at 7080 nM; in assay [2] (delta GTPγS binding EC50 (nM)) it was 180 nM. For the same compound, the Ki at mu opioid receptor (setting [7]) stood at 32.6 nM; on delta opioid receptor (setting [8]), 20.2 nM.

Turning to `NC(=O)c1cccc2c1Oc1ccccc1C2=C1CC2CCC(C1)N2Cc1ccoc1` [Cpd 4, 9-(8-Furan-3-ylmethyl-8-azabicyclo[3.2.1]oct-3-ylidene)-9H-xanthene-4-carboxylic acid amide], the EC50 in assay [1] (setting [3]) was 4040 nM; in assay [2] (setting [6]), 9.4 nM. Moreover, the Ki on mu opioid receptor (setting [7]) came out at 2.5 nM; on delta opioid receptor (setting [8]) it was 2.3 nM.

Turning to `CN1C2CCC1CC(=C1c3ccccc3Oc3c(O)cccc31)C2` [Cpd 19, 9-(8-Methyl-8-azabicyclo[3.2.1]oct-3-ylidene)-9H-xanthen-4-ol], the EC50 in assay [1] is greater than 10000 nM; in assay [2] (delta GTPγS binding EC50 (nM)) it was 768 nM. Besides, the Ki at mu opioid receptor (setting [7]) turned out to be 372 nM; at delta opioid receptor (setting [8]), 28.3 nM.

Take `Oc1cc(CN2C3CCC2CC(=C2c4ccccc4Oc4c(O)cccc42)C3)ccn1` [Cpd 23]: the EC50 came to 12400 nM in assay [1] (setting [3]) and 52.8 nM in assay [2] (setting [6]). The results for the Ki at mu opioid receptor (setting [4]) and at delta opioid receptor (setting [5]) were 2.18 nM and 1.5 nM, respectively.

For `Oc1cccc2c1Oc1ccccc1C2=C1CC2CCC(C1)N2CCc1ccccc1` [Cpd 30], the EC50 in assay [1] (setting [3]) was greater than 10000 nM; in assay [2] (setting [6]) it was 2960 nM. Besides, the Ki at mu opioid receptor (setting [4]) was determined as 27.7 nM; at delta opioid receptor (setting [5]), 63.5 nM.

`Oc1cccc2c1Oc1ccccc1C2=C1CC2CCC(C1)N2` (racemic) [Cpd 2, 9-(8-Aza-bicyclo[3.2.1]oct-3-ylidene)-9H-xanthen-4-ol]: the EC50 worked out at 382 nM in assay [1] and 50.9 nM in assay [2] (delta GTPγS binding EC50 (nM)). Further, the “mu GTPγS binding Rel Eff” value in assay [1] (CHO-hMOR cell membranes, value in parentheses) was found to be 0.37. Further, the Ki at mu opioid receptor (setting [7]) turned out to be 7 nM; on delta opioid receptor (setting [8]) it was 0.48 nM. Also, the “delta GTPγS binding Rel Eff” value in assay [2] (value in parentheses) is 0.67.

For the compound `Oc1cccc2c1Oc1ccccc1C2=C1CC2CCC(C1)N2Cc1ncc[nH]1` [Cpd 34], the EC50 in assay [1] (setting [3]) turned out to be 1610 nM; in assay [2] (setting [6]), 3.33 nM. Besides, the Ki at mu opioid receptor (setting [4]) turned out to be 0.53 nM; at delta opioid receptor (setting [5]), 0.028 nM.

As to `NC(=O)c1cccc2c1Oc1ccccc1C2=C1CC2CCC(C1)N2` [Cpd 3, 9-(8-Aza-bicyclo[3.2.1]oct-3-ylidene)-9H-xanthene-4-carboxylic acid amide], the EC50 in assay [1] came to 3960 nM; in assay [2] (delta GTPγS binding EC50 (nM)), 42 nM. The figures for the Ki at mu opioid receptor (setting [7]) and on delta opioid receptor (setting [8]) were 29.4 nM and 3.2 nM, respectively.

For `Oc1cccc2c1Oc1ccccc1C2=C1CC2CCC(C1)N2Cc1ccccc1` [Cpd 32, 9-(8-benzyl-8-azabicyclo[3.2.1]oct-3-ylidene)-9H-xanthen-4-ol], the EC50 is greater than 10000 nM in assay [1] and 28.6 nM in assay [2] (delta GTPγS binding EC50 (nM)). In addition, the results for the Ki at mu opioid receptor (setting [7]) and on delta opioid receptor (setting [8]) were 0.29 nM and 0.023 nM, respectively.

On to `NC(=O)c1cccc2c1Oc1ccccc1C2=C1CC2CCC(C1)N2` (single isomer, unassigned) [Cpd 37, 9-(8-Azabicyclo[3.2.1]oct-3-ylidene)-9H-xanthene-4-carboxylic acid amide], for which the EC50 in assay [1] came to 878 nM; in assay [2] (delta GTPγS binding EC50 (nM)) it was 156 nM. Moreover, the Ki at mu opioid receptor (setting [7]) stood at 29 nM; on delta opioid receptor (setting [8]), 4 nM.
